Results taken from patent US10912827B2 (priority 2016, dated 2021).
Like-named read-outs stand apart in the source and are kept apart here.

Experiments:
[1] = test system: HBV-transgenic mice (Strain HBV1.3.32); conditions: mouse, in vivo
[2] = test system: HBV-transgenic mice (Strain HBV1.3.32); type: in vivo, mouse
HBVtg mice = conditions: mouse, in vivo
[3] = test system: chronic Hepatitis B virus (HBV)-infection; conditions: cited from earlier work
[4] = middle and high antigenemic HBVtg mice, day 34

Compound	adjuvant efficacy for therapeutic protein prime-MVA boost vaccination [1]	difference in magnitude of HBV-specific CD8+ T cell responses between c-di-AMP and CpG/PCEP regimens [1]	efficacy as adjuvant for therapeutic protein prime-MVA boost vaccination [1]	efficacy in i.m. versus s.c./i.p. application routes [1]	titers of anti-HBc antibodies, c-di-AMP compared to CpG/PCEP regimen ([2]; day 34, p<0.05)	impact on serum HBeAg levels ([2]; high antigenemic HBVtg mice, HBsAg+HBcAg prime twice, MVA-S/core boost day 28, day 34)	HBV replication, detected indirectly by HBeAg levels ([2]; i.m. route)	HBsAg to anti-HBs seroconversion [2, 4]	anti-HBc responses [2, 4]	HBV replication, detected indirectly by HBeAg levels ([2]; s.c./i.p. routes)	liver damage / increase in ALT (HBVtg mice)	patients in whom therapy is curative [3]
Nc1ncnc2c1ncn2[C@@H]1O[C@@H]2COP(=O)(O)O[C@H]3[C@@H](O)[C@H](n4cnc5c(N)ncnc54)O[C@@H]3COP(=O)(O)O[C@H]2[C@H]1O [c-di-AMP, bis-(3′,5′)-cyclic dimeric adenosine monophosphate]	potent adjuvant	no statistically significant difference	very potent adjuvant	equally effective	significantly higher titers	Neither c-di-AMP nor CpG/PCEP immunization protocol had an impact	lower HBV replication	HBsAg to anti-HBs seroconversion in all examined HBVtg mice	significant anti-HBc responses	lower HBV replication	mild T-cell-induced liver damage	
Interferon α												15-20%
